# “Also recorded” adds a separate entry of the source.
# Tests used:
# [1] = tested on: mouse primary chondrocytes; assay: RT-qPCR gene expression in mouse primary chondrocytes treated with 3TC or FTC at various dosages; type: cell-based
# Procedure: Rib cages were sterilely isolated from neonatal mice (within 7-day-old) of desired genotypes and rinsed with HBSS for five times. To remove unspecific tissues, rib cages were digested in Collagenase D (3 μg/mL, Roche, Cat. 11088882001, Mannheim, Germany) for 2-4 hrs at 37° C. and rinsed with HBSS (Gibco®, Grand Island, N.Y. 14072 USA) for five times to remove detached unspecific tissues. To detach chondrocytes from rib cages, the samples underwent secondary digestion in Collagenase D (3 μg/mL) for at least 4 hrs at 37° C. with constant agitation (200 rpm). Detached chondrocytes were pelleted to remove excessive Collagenase D and resuspended in complete medium of DMEM (Gibco®, Grand Island, N.Y. 14072 USA) which contains 10% FBS, 100 U/mL penicillin and 100 μg/mL streptomycin (Gibco®, Grand Island, N.Y. 14072 USA). Growth plate PCs were grown at 37° C. in an atmosphere of 5% CO2. The media was changed on the following day to remove remaining Collagenase D and every 3 days thereafter. Similarly, articular cartilages were sterilely isolated under dissection microscope from neonatal mice (within 7-day-old) of desired genotypes and rinsed with HBSS for five times. In brief, the skins of hindlimbs were removed and transections on Ilia and muscles around hip joints were made to detach hindlimbs from torsi, then transferred to a petri dish. Under a dissection microscope placed in a cell culture hood, soft tissues were cleared while knee and hip joints were exposed. Femur heads could be easily peeled off whilst a fine cut of epiphyses based on vascularization were made to isolate articular cartilage from secondary ossification center. Beyond that, isolated tissues were minced into finer fragments and then put together before undergoing HBSS rinse and subsequent Collagenase D digestion. To remove unspecific tissues, articular cartilages were minced and digested in Collagenase D (3 μg/mL) for 2 hrs at 37° C. and rinsed with HBSS for five times to remove detached unspecific tissues. To detach chondrocytes from cartilage matrix, the samples underwent secondary digestion in Collagenase D (3 μg/mL) for at least 4 hrs at 37° C. with constant agitation (200 rpm). Detached chondrocytes were pelleted to remove excessive Collagenase D and resuspended in complete medium of DMEM which contains 10% FBS, 100 U/mL penicillin and 100 μg/mL streptomycin. Articular PCs were grown at 37° C. in an atmosphere of 5% CO2. The media was changed on the following day to remove remaining Collagenase D and every 3 days thereafter. Both miRNA and mRNA were extracted using miRNeasy Mini Kit (Qiagen®, Germantown, Md., USA) and reversely transcribed using […] (Qiagen®, Germantown, Md., USA) according to manufacturer's instruction. qPCR was performed using SYBR Green PCR master mix (Qiagen®, Germantown, Md., USA) on a Bio-Rad CFX96 real-time PCR detection system (Bio-Rad®, Hercules, Calif., USA). Amplification conditions are as follows: 95° C. for 10 min, 40 cycles of 95° C. for 10'', 55° C. for 30'', and 72° C. for 30''. 18S ribosomal or GAPDH RNA was used as an internal control gene to normalize the mRNAs level. The ubiquitously expressed snRNA U6 was used as an endogenous control for miRNAs level. […] The primers for miR-365 were purchased from Qiagen. Fold changes of mRNA and miRNAs were calculated by the 2^^(ΔΔCt) method and normalized to 18S/GAPDH or U6 snRNA, respectively.
# [2] = tested on: mouse femur articular cartilage; assay: femur explant organ culture with 3TC or FTC, RT-qPCR of articular cartilage; type: cell-based; conditions: 10 μM 3TC or 25 μM FTC, 48 hrs
# Excerpt: Femurs were obtained from 21-day-old WT C57BL/6 mice. Femurs with intact articular surface and periosteum was sterilely dissected under microscope. Upon harvesting, femurs were rinsed with HBSS (Gibco®, Grand Island, N.Y. 14072 USA) and then submerged into DMEM (Gibco, Grand Island, N.Y. 14072 USA) medium supplemented with 10% fetal bovine serum (FBS, Gibco®, Grand Island, N.Y. 14072 USA) in 12-well culture dishes. The first-generation cytidine analogue/NRTI-3TC or newest-generation cytidine analogue/NRTI-FTC was added into the medium with desired concentrations. After a total of 48 hrs incubation at 37° C. in an atmosphere of 5% CO2, femurs were rinsed with HBSS and articular cartilage was peeled off using surgical scalpels under dissecting microscope for RNA extraction. Both miRNA and mRNA were extracted using miRNeasy Mini Kit (Qiagen®, Germantown, Md., USA) and reversely transcribed using […] (Qiagen®, Germantown, Md., USA) according to manufacturer's instruction. qPCR was performed using SYBR Green PCR master mix (Qiagen®, Germantown, Md., USA) on a Bio-Rad CFX96 real-time PCR detection system (Bio-Rad®, Hercules, Calif., USA). Amplification conditions are as follows: 95° C. for 10 min, 40 cycles of 95° C. for 10'', 55° C. for 30'', and 72° C. for 30''. 18S ribosomal or GAPDH RNA was used as an internal control gene to normalize the mRNAs level. The ubiquitously expressed snRNA U6 was used as an endogenous control for miRNAs level. […] The primers for miR-365 were purchased from Qiagen. Fold changes of mRNA and miRNAs were calculated by the 2^^(ΔΔCt) method and normalized to 18S/GAPDH or U6 snRNA, respectively.
# [3] = tested on: HIV patients; assay: summary data of NRTI on OA in HIV patients; type: in vivo, human; conditions: HIV patients, older than 50, dosage dependent, both male and female
# Excerpt: Medical provider diagnoses of ICD-9-CM 715 [osteoarthrosis and allied disorders] include the following definitions: 1) strict=ICD-9-CM 715; 2) expanded=ICD-9-CM 715, 716 [other and unspecified arthropathies], OR 719 [other and unspecified disorders of joint]); and 3) probable=strict OR expanded+respondent-reported prior diagnosis of OA or other arthritis excluding rheumatoid arthritis (RA).
# [4] = mouse primary chondrocytes, RNA level, various dosages
# [5] = mouse chondrocytes, at lower than 100 μM concentrations
Compound,"Acan expression [1, 4]","Adamts5 expression [1, 4]","Col2 (Col2a1) expression [1, 4]","Col10 (Col10a1) expression [1, 4]","Ifn-α (Inf-α) expression [1, 4]","Line-1 expression [1, 4]","Mmp13 expression [1, 4]",Acan expression [2],Adamts5 expression [2],Col2 (Col2a1) expression [2],Col10 (Col10a1) expression [2],Ifn-α mRNA level [2],Ihh mRNA level [2],Line-1 (L1) levels [2],Mmp3 mRNA level [2],Mmp13 expression [2],strict OA (ICD-9-CM 715) [3],other results
"Nc1ccn([C@@H]2CS[C@H](CO)O2)c(=O)n1 [3TC, lamivudine]",stimulated,suppresses; also recorded: inhibited,promotes; also recorded: stimulated,suppresses; also recorded: inhibited,suppresses,suppresses; also recorded: inhibited,inhibited,induces; also recorded: increased,inhibiting; also recorded: significantly inhibited,induces; also recorded: increased,inhibiting; also recorded: significantly inhibited,significantly inhibited,significantly inhibited,inhibiting; also recorded: significantly inhibited,significantly inhibited,inhibiting; also recorded: significantly inhibited,inhibiting,
"Nc1nc(=O)n([C@@H]2CS[C@H](CO)O2)cc1F [FTC, 2′,3′-dideoxy-5-fluoro-3′-thiacytidine]",promotes,induces,promotes,induces,suppresses; also recorded: significantly inhibited,suppresses; also recorded: significantly inhibited,induces,induces; also recorded: increased,inhibits; also recorded: significantly inhibited,increased,significantly inhibited,significantly inhibited,significantly inhibited,significantly inhibited,significantly inhibited,inhibits; also recorded: significantly inhibited,inhibiting,"Acan levels [1, 5]: increased; Col2a1 levels [1, 5]: increased; Mmp3 expression [1, 4]: induces; Nlrp3 expression [1, 4]: suppresses; also recorded: significantly inhibited; P2rx7 expression [1, 4]: suppresses; also recorded: significantly inhibited"

# Source: patent US12121530B2, “Composition and methods for treating articulating joint disorders with nucleoside reverse transcriptase inhibitors” (RHODE ISLAND HOSPITAL, priority 2018, dated 2024)
